Reference: patent US12391698B2, “Substituted piperidines and piperazines and methods for the treatment of CNS disorders” (SUVEN LIFE SCIENCES LIMITED, priority 2022, dated 2025)
Structures can show the parent of a compound that is named as a salt.

Key:
Male Wistar rats [1] = assay: Rotarod test; type: in vivo, rat; details: 30 mg/kg p.o., 60 min prior to trial
Protocol: Male Wistar rats of 200-280 g body weight were used. Rats were weighed and randomized according to their body weights. The animals were habituated on a rotating rod (4 rpm) for 4 times. Animals which successfully stayed on the rotating rod for 60 seconds (out of 4 trials per animal) were selected for further study. […] A single trial was carried out on the next day. Animals that were able to stay on the rotating rod for 60 seconds were chosen for further study. Animals were administered with test compound or vehicle 60 min prior to the trial. The latency to fall from the rotating rod was noted. Rotarod test assesses effects of test compound on motor functions.

Rats = assay: Tardive dyskinesia test (vacuous chewing movements and tongue protrusions); type: in vivo, rat; details: 10 mg/kg, p.o. (5 mg twice a day) for 4 weeks
Protocol: Rats weighing 200-230 g were acclimatized to the plexiglass observation cages (30×20×30 cm) equipped with mirrors for 5 min. After acclimatization, basal vacuous chewing movements (VCMs) and tongue protrusions (TPs) of the rats were quantified manually for 5 min. Rats were randomized based on the basal readings. Rats received a single dose of sesame oil (vehicle treatment) or haloperidol decanoate (38 mg/kg, i.m. positive control). Example-2, 10 mg/kg, p.o. ([…]) was administered for 4 weeks. VCMs and TPs were scored on weekly basis for 4 weeks. Tardive dyskinesia is a side effect of antipsychotic medications.

Male Wistar rats [2] = assay: Effect on sleep/wake profile (EEG/EMG telemetry); type: in vivo, rat; details: 10 mg/kg, p.o., dosed 15 min prior to lights-off
Text: Male Wistar rats were anesthetized with isoflurane (Baxter India Private Limited: 4% in oxygen for induction; 2% for maintenance) and were fixed into the stereotaxic frame (Stoelting, Illinois, USA) to perform surgery. An incision was made to reveal bregma from which coordinates were taken. Telemetric transmitter (Model F40-EET; DSI, St. Paul, MN, USA) was implanted into intraperitoneal cavity of the rats and leads were tunneled subcutaneously to the skull. One pair of electrodes were implanted epidurally into the frontal cortex region using stainless steel screws (CMA Microdialysis, Stockholm, Sweden) at coordinates of AP +3.2 mm, ML ±3.0 mm (Paxinos and Watson 2004) for recording of EEG and electrodes were fixed to the skull with dental acrylic cement (Dentalon® plus). The second set of lead wires were implanted into the neck nuchal muscle to record electromyogram (EMG). After a surgical recovery of minimum 3 weeks, animals were acclimatized to the handling procedures and were given a mock dosing for 3 days before the first experimental day.
One hour prior to lights-off, transmitter was switched on using a magnet and animals were transferred on to the receiver along with the home cage. […]
The amount of time spent in wake was determined for every 30 min and comparison between treatments was done using Bonferroni's post test.

[3] = system: Dopamine and norepinephrine levels in prefrontal cortex and striatum; assay: Modulation in dopamine and norepinephrine levels in prefrontal cortex and striatum (microdialysis); type: in vivo; details: male Wistar rats; for mean maximum increase in dopamine levels in prefrontal cortex / mean maximum increase in norepinephrine levels in prefrontal cortex: s.c. (so in the source), basal = 100%

**Q.** `O=C1C[C@@H]2CCCN2C(=O)N1CCCCN1CCN(c2nsc3ccccc23)CC1` [Example 2, 2-[4-(4-Benzo[d]isothiazol-3-yl-piperazin-1-yl)-butyl]-tetrahydro-pyrrolo[1,2-c]pyrimidine-1,3-dione oxalate] was tested. Which “Inference, rotarod test (motor incoordination side effects)” value (Male Wistar rats [1]) did it give?
**A.** No motor incoordination

**Q.** And the “Inference, tardive dyskinesia like symptoms (VCMs and TPs)” value (Rats)?
**A.** Example-2 did not show tardive

**Q.** And the “change in percent time wake” value (Male Wistar rats [2])?
**A.** no change

**Q.** What about the “mean maximum increase in dopamine levels in prefrontal cortex” value ([3]; 3 mg/kg) of the same molecule?
**A.** 326±24%

**Q.** And the “mean maximum increase in norepinephrine levels in prefrontal cortex” value ([3]; 3 mg/kg)?
**A.** 187±30%

**Q.** What about the “mean maximum increase in dopamine levels in prefrontal cortex” value ([3]; 10 mg/kg) of the same molecule?
**A.** 458±91%

**Q.** And the “mean maximum increase in norepinephrine levels in prefrontal cortex” value ([3]; 10 mg/kg)?
**A.** 368±99%

**Q.** And the “change in dopamine levels in striatum” value [3]?
**A.** no change
